Measurements reported in patent US11700767B2, “Condensed cyclic compound, composition including the condensed cyclic compound, and organic light-emitting device including the composition” (SAMSUNG ELECTRONICS CO., LTD., priority 2017, dated 2023).

Experiment: Measurement of solubility in methyl benzoate (Evaluation Example 1)
Type: physicochemical
Details: for solubility in an organic solvent, as compared with host-c: qualitative statement referring to Table 1; for Solubility: solvent methyl benzoate, room temperature, ultrasonic irradiation, visual check
Protocol: 50 milligrams (mg) of Compound 1-1 and 450 mg of methyl benzoate (solvent) were added to a colorless sample bottle, the mixture was irradiated with ultrasonic waves at room temperature for 5 minutes, and the presence or absence of Compound 1-1 was visually confirmed. […] If Compound 1-1 remained, a small amount of the solvent was added, the irradiation with ultrasonic waves was repeated, and an amount of the solvent was measured until Compound 1-1 was completely dissolved. The solubility was calculated from an amount of the solvent finally used. The solubility values of Compound 1-2 and host-c were calculated in the same manner.

solubility in an organic solvent, as compared with host-c | Solubility [weight %] | SMILES
high solubility | 4 | c1ccc(-c2cccc(-c3cccc(-c4ccc5c(c4)c4ccccc4n5-c4ccc(-c5cccc(-c6cc(-c7ccc(-c8cccc(-c9nc(-c%10ccccc%10)nc(-c%10ccccc%10)n9)c8)cc7)c7oc8ccccc8c7c6)c5)cc4)c3)c2)cc1 [Compound 1-1]
 | 0.1 | c1ccc(-c2nc(-c3ccccc3)nc(-c3cc(-n4c5ccccc5c5ccccc54)cc4c3oc3ccccc34)n2)cc1 [host-c, reference compound]
high solubility | 4 | c1ccc(-c2cccc(-c3cccc(-c4ccc5c(c4)c4ccccc4n5-c4ccc(-c5cccc(-c6cc(-c7cccc(-c8cccc(-c9cccc(-c%10nc(-c%11ccccc%11)nc(-c%11ccccc%11)n%10)c9)c8)c7)c7oc8ccccc8c7c6)c5)cc4)c3)c2)cc1 [Compound 1-2]
